29 compounds from US10093683B2, “Factor XIa inhibitors” (Merck Sharp & Dohme Corp., priority 2014, dated 2018) can be followed below.

Chain of human Factor XIa (P03951 388-625): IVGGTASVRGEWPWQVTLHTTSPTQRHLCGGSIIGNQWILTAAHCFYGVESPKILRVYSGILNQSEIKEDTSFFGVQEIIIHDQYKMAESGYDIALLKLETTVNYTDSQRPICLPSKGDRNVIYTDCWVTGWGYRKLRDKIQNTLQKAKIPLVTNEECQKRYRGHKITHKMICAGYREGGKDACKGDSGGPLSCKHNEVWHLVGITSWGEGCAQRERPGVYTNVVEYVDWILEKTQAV
Chain of human Factor XIa (P03951 19-387 partner): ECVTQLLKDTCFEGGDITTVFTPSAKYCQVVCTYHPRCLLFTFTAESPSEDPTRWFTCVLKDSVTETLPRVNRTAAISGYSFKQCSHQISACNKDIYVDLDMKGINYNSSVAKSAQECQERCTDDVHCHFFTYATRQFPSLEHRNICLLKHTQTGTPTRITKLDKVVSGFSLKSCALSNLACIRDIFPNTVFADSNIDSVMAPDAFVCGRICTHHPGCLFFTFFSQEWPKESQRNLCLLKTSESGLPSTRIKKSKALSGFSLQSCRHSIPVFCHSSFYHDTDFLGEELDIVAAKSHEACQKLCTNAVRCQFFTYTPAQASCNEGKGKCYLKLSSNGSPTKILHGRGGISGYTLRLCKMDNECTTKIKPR

The target of the first assay is human Factor XIa (Homo sapiens (Human), UniProt P03951). In words: Factor XIa Assay. The format is biochemical. Conditions: purified human Factor XIa 40 pM, Z-Gly-Pro-Arg-AFC 100 μM, pH 7.4; read-out: FXIa Ki. The protocol:
The effectiveness of a compound of the present invention as an inhibitor of Coagulation Factor XIa can be determined using a relevant purified serine protease, and an appropriate synthetic substrate. The rate of hydrolysis of the chromogenic or fluorogenic substrate by the relevant serine protease was measured both in the absence and presence of compounds of the present invention. Assays were conducted at room temperature or at 37° C. […] A decrease in the rate of fluorescence change in the presence of inhibitor is indicative of enzyme inhibition. Such methods are known to one skilled in the art. The results of this assay are expressed as the inhibitory constant, Ki.
Factor XIa determinations were made in 50 mM HEPES buffer at pH 7.4 containing 150 mM NaCl, 5 mM CaCl2, and 0.1% PEG 8000 (polyethylene glycol; JT Baker or Fisher Scientific). Determinations were made using purified human Factor XIa at a final concentration of 40 pM (Sekisui Diagnostics) and he synthetic substrate, Z-Gly-Pro-Arg-AFC, TFA salt (Sigma #C0980) at a concentration of 100 μM.
Times required to achieve equilibration between enzyme and inhibitor were determined in control experiments. Initial velocities of product formation in the absence (Vo) or presence of inhibitor (Vi) were measured. Assuming competitive inhibition, and that unity is negligible compared Km/[S], [I]/e, and [I]/e (where [S], [I], and e respectively represent the total concentrations, of substrate, inhibitor and enzyme), the equilibrium constant (Ki) for dissociation of the inhibitor from the enzyme can be obtained from the dependence of Vo/Vi on [I] shown in the following equation.
Regarding `COC(=O)Nc1ccc(C(=O)N[C@H](CC(=O)N2CCC3(C2)OC(=O)Nc2ccc(Cl)cc23)Cc2ccccc2)cc1` (stereo partly drawn) [Example 49, methyl (4-(((2S)-4-(6-chloro-2-oxo-1,2-dihydrospiro[benzo[d][1,3]oxazine-4,3′-pyrrolidin]-1′-yl)-4-oxo-1-phenylbutan-2-yl)carbamoyl)phenyl)carbamate], the Ki turned out to be 362 nM.
On to `COC(=O)Nc1ccc(C(=O)N[C@@H](Cc2ccccc2)C(=O)N2CCC[C@]3(C2)OC(=O)Nc2ccc(F)cc23)cc1` [Example 8b, methyl (4-(((S)-1-((S)-6-fluoro-2-oxo-1,2-dihydrospiro[benzo[d][1,3]oxazine-4,3′-piperidin]-1′-yl)-1-oxo-3-phenylpropan-2-yl)carbamoyl)phenyl)carbamate], for which the Ki came out at 5000 nM.
On the same count and under the same terms, the same measure for `COC(=O)Nc1ccc(C(=O)N[C@@H](Cc2ccccc2)C(=O)N2CCC[C@@]3(C2)OC(=O)Nc2cc(F)c(Cl)c(F)c23)cc1` [Example 11, methyl (4-(((S)-1-((R)-6-chloro-5,7-difluoro-2-oxo-1,2-dihydrospiro[benzo[d][1,3]oxazine-4,3′-piperidin]-1′-yl)-1-oxo-3-phenylpropan-2-yl)carbamoyl)phenyl)carbamate]: 51 nM.
On the same count and under the same terms, the same measure for `COC(=O)Nc1ccc(-c2ncc(C(Cc3ccccc3)C(=O)N3CCC[C@@]4(C3)OC(=O)Nc3ccc(Cl)c(F)c34)[nH]2)cc1` (single isomer, unassigned) [Example 130B]: over 875 nM; for `COC(=O)Nc1ccc(C(=O)N[C@@H](Cc2ccccc2)C(=O)N2CCC[C@]3(C2)OC(=O)Nc2ccc(Cl)cc23)cc1` [Example 3a, methyl (4-(((S)-1-((S)-6-chloro-2-oxo-1,2-dihydrospiro[benzo[d][1,3]oxazine-4,3′-piperidin]-1′-yl)-1-oxo-3-phenylpropan-2-yl)carbamoyl)phenyl)carbamate]: 815 nM.
Same read-out and setting: then `COC(=O)Nc1ccc(C(=O)N[C@@H](CC(=O)NC2COC2)C(=O)N2CC[C@@]3(C2)OC(=O)Nc2ccc(Cl)cc23)cc1` [Example 93, methyl (4-(((S)-1-((R)-6-chloro-2-oxo-1,2-dihydrospiro[benzo[d][1,3]oxazine-4,3′-pyrrolidin]-1′-yl)-4-(oxetan-3-ylamino)-1,4-dioxobutan-2-yl)carbamoyl)phenyl)carbamate], with 45.8 nM; and `O=C1Nc2ccc(Cl)cc2[C@@]2(CCN(C(=O)[C@@H](Cc3ccccc3)C(=O)Nc3ccc(C(=O)O)cc3)C2)O1` [Example 121d, 4-((S)-2-benzyl-3-((R)-6-chloro-2-oxo-1,2-dihydrospiro[benzo[d][1,3]oxazine-4,3′-pyrrolidin]-1′-yl)-3-oxopropanamido)benzoic acid], with 3780 nM; and `COC(=O)Nc1ccc(C(=O)N[C@@H](CCNC(=O)OC2CCC2)C(=O)N2CCC[C@@]3(C2)OC(=O)Nc2ccc(Cl)cc23)cc1` [Example 109, methyl (4-(((S)-1-((R)-6-chloro-2-oxo-1,2-dihydrospiro[benzo[d][1,3]oxazine-4,3′-piperidin]-1′-yl)-4-((cyclobutoxycarbonyl)amino)-1-oxobutan-2-yl)carbamoyl)phenyl)carbamate], with 48.3 nM.
Turning to `O=C1Nc2ccc(Cl)cc2C2(CCN(C(=O)[C@H](Cc3ccccc3)NS(=O)(=O)c3ccc(C(=O)O)cc3)C2)O1` (stereo partly drawn) [Example 283, 4-(N-((2S)-1-(6-chloro-2-oxo-1,2-dihydrospiro[benzo[d][1,3]oxazine-4,3′-pyrrolidin]-1′-yl)-1-oxo-3-phenylpropan-2-yl)sulfamoyl)benzoic acid], the Ki was at least 5000 nM.
Still for that read-out and setting: the same measure for `COC(=O)Nc1ccc(C(=O)N[C@@H](CCS(C)(=O)=O)C(=O)N2CCC[C@@]3(C2)OC(=O)Nc2ccc(Cl)cc23)cc1` [Example 59, methyl (4-(((S)-1-((R)-6-chloro-2-oxo-1,2-dihydrospiro[benzo[d][1,3]oxazine-4,3′-piperidin]-1′-yl)-4-(methylsulfonyl)-1-oxobutan-2-yl)carbamoyl)phenyl)carbamate]: 97.7 nM.
On the same count and under the same terms, the same measure for `COC(=O)Nc1ccc(C(=O)N[C@@H](Cc2ccccc2)C(=O)N2CC[C@]3(C2)OC(=O)Nc2ccc(C)cc23)cc1` [Example 14a, methyl (4-(((S)-1-((S)-6-methyl-2-oxo-1,2-dihydrospiro[benzo[d][1,3]oxazine-4,3′-pyrrolidin]-1′-yl)-1-oxo-3-phenylpropan-2-yl)carbamoyl)phenyl)carbamate]: 5000 nM; for `COC(=O)Nc1ccc(-c2ncc(C(Cc3ccccc3)C(=O)N3CCC[C@@]4(C3)OC(=O)Nc3ccc(Cl)c(F)c34)[nH]2)cc1` (single isomer, unassigned) [Example 130A]: 360 nM; for `COC(=O)Nc1ccc(C(=O)NC(C[C@H]2CCCO2)C(=O)N2CCC[C@@]3(C2)OC(=O)Nc2ccc(Cl)c(F)c23)cc1` (single isomer, unassigned) [Example 117B]: 99.9 nM.
Same read-out and setting: then `COC(=O)Nc1ccc(C(=O)N[C@@H](CC(=O)NC2CCC2)C(=O)N2CCC[C@@]3(C2)OC(=O)Nc2ccc(Cl)cc23)cc1` [Example 86, methyl (4-(((S)-1-((R)-6-chloro-2-oxo-1,2-dihydrospiro[benzo[d][1,3]oxazine-4,3′-piperidin]-1′-yl)-4-(cyclobutylamino)-1,4-dioxobutan-2-yl)carbamoyl)phenyl)carbamate], with 33.7 nM; and `CNC(=O)Nc1ccc(S(=O)(=O)N[C@@H](Cc2ccccc2)C(=O)N2CCC3(C2)OC(=O)Nc2ccc(Cl)cc23)c(Cl)c1` (stereo partly drawn) [Example 281, 2-chloro-N-((2S)-1-(6-chloro-2-oxo-1,2-dihydrospiro[benzo[d][1,3]oxazine-4,3′-pyrrolidin]-1′-yl)-1-oxo-3-phenylpropan-2-yl)-4-(3-methylureido)benzenesulfonamide], with at least 5000 nM; and `O=C1Nc2ccc(Cl)cc2C2(CCN(C(=O)[C@H](Cc3ccccc3)NS(=O)(=O)c3ccc4oc(O)nc4c3)C2)O1` (stereo partly drawn) [Example 285, N-((2S)-1-(6-chloro-2-oxo-1,2-dihydrospiro[benzo[d][1,3]oxazine-4,3′-pyrrolidin]-1′-yl)-1-oxo-3-phenylpropan-2-yl)-2-hydroxybenzo[d]oxazole-5-sulfonamide], with at least 5000 nM.

Still in this assay, the particulars now being: read-out: FXIa Ki.
For `O=C1Nc2ccc(Cl)c(F)c2[C@@]2(CCCN(C(=O)[C@H](Cc3ccccc3)NC(=O)c3ccc(NCC(F)(F)F)nc3)C2)O1` [Example 212], the Ki amounted to 133 nM.
On the same count and under the same terms, the same measure for `N#Cc1n[nH]c2cc(C(=O)N[C@@H](Cc3ccccc3)C(=O)N3CC[C@@]4(C3)OC(=O)Nc3ccc(Cl)cc34)ccc12` [Example 218]: 246 nM; for `O=C1Nc2ccc(Cl)cc2C2(CCN(C(=O)[C@H](Cc3ccccc3)NC(=O)C3(c4ccc(C(=O)O)cc4)CC3)C2)O1` (some centres unmarked) [Example 161]: 4490 nM; for `O=C1Nc2ccc(Cl)c(F)c2[C@@]2(CCCN(C(=O)[C@H](CC3CC3)NC(=O)c3ccc4[nH]c(=O)cc(O)c4c3)C2)O1` [Example 210]: 0.22 nM.
Still for that read-out and setting: then `CS(=O)(=O)c1ccc(C(=O)N[C@@H](Cc2ccccc2)C(=O)N2CCC3(C2)OC(=O)Nc2ccc(Cl)cc23)nc1` (some centres unmarked) [Example 148], with 1870 nM.
For the compound `O=C1Nc2ccc(Cl)cc2C2(CCN(C(=O)[C@H](Cc3ccccc3)NC(=O)c3ccc4[nH]ccc4n3)C2)O1` (some centres unmarked) [Example 153], the Ki was found to be 488 nM.
Still for that read-out and setting: the same measure for `N=C(N)Nc1ccc(C(=O)N[C@@H](Cc2ccccc2)C(=O)N2CCC3(C2)OC(=O)Nc2ccc(Cl)cc23)cc1` (stereo partly drawn) [Example 179, N-((2S)-1-(6-chloro-2-oxo-1,2-dihydrospiro[benzo[d][1,3]oxazine-4,3′-pyrrolidin]-1′-yl)-1-oxo-3-phenylpropan-2-yl)-4-guanidinobenzamide]: 454 nM; for `O=C1Nc2ccc(Cl)cc2C2(CCN(C(=O)[C@H](Cc3ccccc3)NC(=O)c3ccnc(O)c3)C2)O1` (some centres unmarked) [Example 155]: 169 nM.
Still for that read-out and setting: the same measure for `C[C@@H]1NC(=O)O[C@H]1c1cccc(C(=O)N[C@@H](Cc2ccccc2)C(=O)N2CCC3(C2)OC(=O)Nc2ccc(Cl)cc23)c1` (stereo partly drawn) [Example 173, N-((2S)-1-(6-chloro-2-oxo-1,2-dihydrospiro[benzo[d][1,3]oxazine-4,3′-pyrrolidin]-1′-yl)-1-oxo-3-phenylpropan-2-yl)-3-((4S,5S)-4-methyl-2-oxooxazolidin-5-yl)benzamide]: 385 nM; for `O=C1Nc2ccc(Cl)cc2C2(CCN(C(=O)[C@H](Cc3ccccc3)NC(=O)c3cccc(N4CCNC4=O)c3)C2)O1` (stereo partly drawn) [Example 169, N-((2S)-1-(6-chloro-2-oxo-1,2-dihydrospiro[benzo[d][1,3]oxazine-4,3′-pyrrolidin]-1′-yl)-1-oxo-3-phenylpropan-2-yl)-3-(2-oxoimidazolidin-1-yl)benzamide]: 774 nM.
Turning to `Nc1nc2cc(C(=O)N[C@@H](Cc3ccccc3)C(=O)N3CCC4(C3)OC(=O)Nc3ccc(Cl)cc34)ccc2[nH]1` (some centres unmarked) [Example 180], the Ki turned out to be 56.7 nM.
With `O=C1Nc2ccc(Cl)cc2C2(CCN(C(=O)[C@H](Cc3ccccc3)NC(=O)c3ccc4ncc(O)nc4c3)C2)O1` (some centres unmarked) [Example 262], the Ki was 512 nM.
On the same count and under the same terms, then `O=C1Nc2ccc(Cl)cc2C2(CCN(C(=O)[C@H](Cc3ccccc3)NC(=O)c3ccc(C(=O)O)cc3)C2)O1` (single isomer, unassigned) [Example 140a], with 1600 nM.
